Experimental data from patent US8378114B2, “N-2-(hetero)arylethylcarboxamide derivative, and pest-controlling agent comprising the same” (Nihon Nohyaku Co., Ltd., priority 2006, dated 2013).

How the values were obtained:
[1] = tested on: southern root-knot nematode (Meloidogyne incognita); assay: Test on the controlling efficacy against southern root-knot nematode; assay type: in vivo; parameters: key: A: No root knot.; B: Apparently smaller number of root knots than in non-treated section were present.; C: Root knots in the number equivalent to or higher than in non-treated section were present; conditions: melon nursery plant, plant foot irrigation, 500 ppm, 8 days after inoculation
Experimental: An emulsion prepared by diluting an emulsifiable concentrate of the compound of the present invention, which was prepared in accordance with Formulation Example 1, to 500 ppm was irrigated to the plant foot of a pot-cultivated nursery plant raised from the seed of melon. One day after the irrigation, an aqueous suspension (about 500 nematodes/ml) of southern root-knot nematode was inoculated (soil irrigation) to a treated section and a non-treated section, and the pot was placed in a greenhouse at 25° C. Eight days after the inoculation, the root was washed with water, the number of root knots was counted, and the effect was assessed according to the following criteria of judgment. • Criteria of Judgment • A: No root knot. • B: Apparently smaller number of root knots than in non-treated section were present. • C: Root knots in the number equivalent to or higher than in non-treated section were present.

[2] = tested on: causal fungus of apple tree scab (Venturia inaequalis); assay: Test on the controlling efficacy against apple tree scab; assay type: in vivo; conditions: apple seedling, foliar application, 4-fold concentration 200 ppm, 14 days after inoculation
Source text: A seedling of an apple tree (the variety: Ohrin) grown in a pot was subjected to foliar application with a diluted emulsion of the emulsifiable concentrate of the compound of the present invention prepared in accordance with Formulation Example 1, which diluted emulsion was produced by diluting the concentrate with water to the specifically determined volume. On the following day after the application, the seedling was inoculated by spraying with a spore suspension of the causal fungus of apple tree scab (Venturia inaequalis) as obtained by culture on the PSA medium and maintained at 20° C. under humid conditions. Fourteen days after the inoculation, the protective value (%) was determined in accordance with the equation (1), and the controlling efficacy was assessed according the below-described criteria of judgment. [formula]

Row | Structure (SMILES) | effect on number of root knots, criteria of judgment [1] | controlling efficacy, criteria of judgment (protective value) [2]
1 | CC(Cc1ccc(Cl)cc1Cl)NC(=O)c1nccnc1Cl (stereo not drawn) [3′-44] | B | –
2 | O=C(NCCc1ccc(Cl)cc1Cl)c1ccccc1C(F)(F)F [1-16] | B | –
3 | Cc1nccnc1C(=O)NCCc1ccc(-c2ccc(OC(F)(F)F)cc2)cc1 [3″-48] | B | –
4 | O=C(NCCc1cccc(C(F)(F)F)c1)c1c(Cl)cccc1Cl [comparison compound A, 2,6-dichloro-N-[2-{3-(trifluoromethyl)phenyl}ethyl]benzamide] | – | 0 (Less than 9% in protective value)
5 | O=C(NCC1(c2ccc(Cl)cc2Cl)CC1)c1ccccc1C(F)(F)F [1-34] | B | –
6 | O=C(NCC1(c2ccc(Cl)cc2Cl)CC1)c1nccnc1Cl [3′-43] | B | –
